We go through 27 compounds from patent US10221177B2 (HYDRA BIOSCIENCES, INC., priority 2014, dated 2019).

Each structure is given as a SMILES string.

Chain of human TRPA1 (O75762 whole entry, the tested form may be a part): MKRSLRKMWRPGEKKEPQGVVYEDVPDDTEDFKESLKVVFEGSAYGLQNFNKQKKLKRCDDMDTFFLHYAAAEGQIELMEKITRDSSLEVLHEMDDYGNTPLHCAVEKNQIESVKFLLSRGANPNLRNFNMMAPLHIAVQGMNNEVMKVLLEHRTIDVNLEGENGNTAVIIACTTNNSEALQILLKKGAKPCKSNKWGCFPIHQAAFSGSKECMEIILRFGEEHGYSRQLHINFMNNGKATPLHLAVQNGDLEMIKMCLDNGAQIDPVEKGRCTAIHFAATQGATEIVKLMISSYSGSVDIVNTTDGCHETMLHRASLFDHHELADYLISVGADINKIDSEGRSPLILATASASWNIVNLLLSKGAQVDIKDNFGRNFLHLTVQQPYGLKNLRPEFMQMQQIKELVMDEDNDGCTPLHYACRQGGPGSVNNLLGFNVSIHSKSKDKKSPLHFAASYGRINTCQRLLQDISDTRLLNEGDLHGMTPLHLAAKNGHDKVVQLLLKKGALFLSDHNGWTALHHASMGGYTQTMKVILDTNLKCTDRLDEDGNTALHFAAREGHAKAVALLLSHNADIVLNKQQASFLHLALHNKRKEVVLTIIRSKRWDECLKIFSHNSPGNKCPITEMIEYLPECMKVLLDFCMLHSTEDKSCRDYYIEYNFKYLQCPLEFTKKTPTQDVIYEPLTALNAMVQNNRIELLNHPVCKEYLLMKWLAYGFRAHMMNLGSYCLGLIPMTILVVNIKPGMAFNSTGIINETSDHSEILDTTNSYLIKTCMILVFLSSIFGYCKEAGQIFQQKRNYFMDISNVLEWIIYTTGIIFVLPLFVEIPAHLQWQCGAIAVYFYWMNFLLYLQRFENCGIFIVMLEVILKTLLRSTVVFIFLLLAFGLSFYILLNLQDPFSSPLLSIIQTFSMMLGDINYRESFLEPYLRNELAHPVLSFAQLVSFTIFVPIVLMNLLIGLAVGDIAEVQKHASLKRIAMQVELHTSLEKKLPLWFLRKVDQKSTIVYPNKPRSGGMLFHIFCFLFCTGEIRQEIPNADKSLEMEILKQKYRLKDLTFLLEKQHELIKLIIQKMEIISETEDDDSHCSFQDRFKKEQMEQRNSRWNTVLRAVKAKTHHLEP

The assay concerns the target human TRPA1 (Homo sapiens (Human), UniProt O75762). In words: In vitro inhibition of human TRPA1, whole cell patch configuration. Format: cell-based. The note with it: current activation 10 μM AITC, tested concentrations 320 pM to 3.2 μM, read-out: hTRPA1 IC50. The essentials:
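Whole-cell patch clamp, bath 150 mM NaCl, 10 mM HEPES, 1 mM EGTA, 3 mM MgCl2, pH 7.4 (sometimes 2 mM CaCl2, 1 mM MgCl2). Currents recorded continuously at −60 mV or by 400 ms ramps from −40 mV holding every 4 s; inward/outward currents taken at −80/80 mV, with controlled-temperature focal perfusion.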
As usually defined, the IC50 is the concentration that inhibits the measured activity by half. Regarding `Cc1cc(Cn2c(=O)c3c(ncn3CC(=O)Nc3cncc(-c4cnc(C(F)(F)F)c(C)c4)n3)n(C)c2=O)no1` [Compound 229, 2-(3-methyl-1-((5-methylisoxazol-3-yl)methyl)-2,6-dioxo-2,3-dihydro-1H-purin-7(6H)-yl)-N-(6-(5-methyl-6-(trifluoromethyl)pyridin-3-yl)pyrazin-2-yl)acetamide], the IC50 was 9 nM.

On to `Cc1noc(Cn2c(=O)c3c(ncn3CC(=O)Nc3cncc(-c4cnc(C(F)(F)F)c(C)c4)n3)n(C)c2=O)n1` [Compound 230, 2-(3-methyl-1-((3-methyl-1,2,4-oxadiazol-5-yl)methyl)-2,6-dioxo-2,3-dihydro-1H-purin-7(6H)-yl)-N-(6-(5-methyl-6-(trifluoromethyl)pyridin-3-yl)pyrazin-2-yl)acetamide], for which the concentration for half-maximal inhibition (IC50) came to 14 nM.

Consider `Cc1noc(Cn2c(=O)c3c(ncn3CC(=O)Nc3cccc(-c4cnc(C)c(F)c4)n3)n(C)c2=O)n1` [Compound 231, N-(5′-fluoro-6′-methyl-[2,3′-bipyridin]-6-yl)-2-(3-methyl-1-((3-methyl-1,2,4-oxadiazol-5-yl)methyl)-2,6-dioxo-2,3-dihydro-1H-purin-7(6H)-yl)acetamide], for which the IC50 was 16 nM.

For the compound `CC(=O)Cn1c(=O)c2c(ncn2CC(=O)Nc2cncc(-c3cnc(C(F)(F)F)c(C)c3)n2)n(C)c1=O` [Compound 232, 2-(3-methyl-2,6-dioxo-1-(2-oxopropyl)-2,3-dihydro-1H-purin-7(6H)-yl)-N-(6-(5-methyl-6-(trifluoromethyl)pyridin-3-yl)pyrazin-2-yl)acetamide], the IC50 was 56 nM.

Regarding `CCC(=O)Cn1c(=O)c2c(ncn2CC(=O)Nc2cncc(-c3cnc(C(F)(F)F)c(C)c3)n2)n(C)c1=O` [Compound 233, 2-(3-methyl-2,6-dioxo-1-(2-oxobutyl)-2,3-dihydro-1H-purin-7(6H)-yl)-N-(6-(5-methyl-6-(trifluoromethyl)pyridin-3-yl)pyrazin-2-yl)acetamide], the IC50 is 10 nM.

Take `CC(=O)Cn1c(=O)c2c(ncn2CC(=O)Nc2cccc(-c3cnc(C)c(C(F)(F)F)c3)n2)n(C)c1=O` [Compound 234, 2-(3-methyl-2,6-dioxo-1-(2-oxopropyl)2,3-dihydro-1H-purin-7(6H)-yl)-N-(6′-methyl-5′-(trifluoromethyl)-[2,3′-bipyridin]-6-yl)acetamide]: the IC50 is 4 nM.

Turning to `CCC(=O)Cn1c(=O)c2c(ncn2CC(=O)Nc2cccc(-c3cnc(C)c(C(F)(F)F)c3)n2)n(C)c1=O` [Compound 235, 2-(3-methyl-2,6-dioxo-1-(2-oxobutyl)-2,3-dihydro-1H-purin-7(6H)-yl)-N-(6′-methyl-5′-(trifluoromethyl)-[2,3′-bipyridin]-6-yl)acetamide], the half-maximal inhibitory concentration (IC50) amounted to 2 nM.

Regarding `Cc1ncc(-c2cccc(NC(=O)Cn3cnc4c3c(=O)n(CCCO)c(=O)n4C)n2)cc1C(F)(F)F` [Compound 236, 2-(1-(3-hydroxypropyl)-3-methyl-2,6-dioxo-2,3-dihydro-1H-purin-7(6H)-yl)-N-(6′-methyl-5′-(trifluoromethyl)-[2,3′-bipyridin]-6-yl)acetamide], the IC50 is 711 nM.

`Cc1ncc(-c2cccc(NC(=O)Cn3cnc4c3c(=O)n(CCO)c(=O)n4C)n2)cc1C(F)(F)F` [Compound 237]: the IC50 turned out to be 236 nM.

As to `Cc1cc(Cn2c(=O)c3c(ncn3CC(=O)Nc3cccc(-c4cnc(C)c(C(F)(F)F)c4)n3)n(C)c2=O)no1` [Compound 238, 2-(3-methyl-1-((5-methylisoxazol-3-yl)methyl)-2,6-dioxo-2,3-dihydro-1H-purin-7(6H)-yl)-N-(6′-methyl-5′-(trifluoromethyl)-[2,3′-bipyridin]-6-yl)acetamide], the IC50 is 4 nM.

On to `Cc1ncc(-c2cccc(NC(=O)Cn3cnc4c3c(=O)n(Cc3ccon3)c(=O)n4C)n2)cc1C(F)(F)F` [Compound 239, 2-(1-(isoxazol-3-ylmethyl)-3-methyl-2,6-dioxo-2,3-dihydro-1H-purin-7(6H)-yl)-N-(6′-methyl-5′-(trifluoromethyl)-[2,3′-bipyridin]-6-yl)acetamide], for which the IC50 stood at 3 nM.

`Cc1nc(Cn2c(=O)c3c(ncn3CC(=O)Nc3cccc(-c4cnc(C)c(C(F)(F)F)c4)n3)n(C)c2=O)no1` [Compound 240]: the IC50 was found to be 7 nM.

For `Cc1noc(Cn2c(=O)c3c(ncn3CC(=O)Nc3cccc(-c4cnc(C)c(C(F)(F)F)c4)n3)n(C)c2=O)n1` [Compound 241], the IC50 was 1 nM.

Regarding `CC(=O)CCn1c(=O)c2c(ncn2CC(=O)Nc2cccc(-c3cnc(C)c(C(F)(F)F)c3)n2)n(C)c1=O` [Compound 242, 2-(3-methyl-2,6-dioxo-1-(3-oxobutyl)-2,3-dihydro-1H-purin-7(6H)-yl)-N-(6′-methyl-5′-(trifluoromethyl)-[2,3′-bipyridin]-6-yl)acetamide], the IC50 is 290 nM.

For the compound `CCC(=O)Cn1c(=O)c2c(ncn2CC(=O)Nc2cncc(-c3cnc(C)c(C(F)(F)F)c3)n2)n(C)c1=O` [Compound 243, 2-(3-methyl-2,6-dioxo-1-(2-oxobutyl)-2,3-dihydro-1H-purin-7(6H)-yl)-N-(6-(6-methyl-5-(trifluoromethyl)pyridin-3-yl)pyrazin-2-yl)acetamide], the IC50 was determined as 6 nM.

`CC(=O)Cn1c(=O)c2c(ncn2CC(=O)Nc2cncc(-c3cnc(C)c(C(F)(F)F)c3)n2)n(C)c1=O` [Compound 245, 2-(3-methyl-2,6-dioxo-1-(2-oxopropyl)-2,3-dihydro-1H-purin-7(6H)-yl)-N-(6-(6-methyl-5-(trifluoromethyl)pyridin-3-yl)pyrazin-2-yl)acetamide]: the 50% inhibitory concentration (IC50) was determined as 8 nM.

On to `Cc1cc(Cn2c(=O)c3c(ncn3CC(=O)Nc3csc(-c4cnc(C)c(C(F)(F)F)c4)n3)n(C)c2=O)no1` [Compound 246, 2-(3-methyl-1-((5-methylisoxazol-3-yl)methyl)-2,6-dioxo-2,3-dihydro-1H-purin-7(6H)-yl)-N-(2-(6-methyl-5-(trifluoromethyl)pyridin-3-yl)thiazol-4-yl)acetamide], for which the IC50 came to 1 nM.

Consider `CCC(=O)Cn1c(=O)c2c(ncn2CC(=O)Nc2csc(-c3cnc(C)c(C(F)(F)F)c3)n2)n(C)c1=O` [Compound 247, 2-(3-methyl-2,6-dioxo-1-(2-oxobutyl)-2,3-dihydro-1H-purin-7(6H)-yl)-N-(2-(6-methyl-5-(trifluoromethyl)pyridin-3-yl)thiazol-4-yl)acetamide], for which the IC50 was determined as 2 nM.

With `Cc1nc(Cn2c(=O)c3c(ncn3CC(=O)Nc3csc(-c4cnc(C)c(C(F)(F)F)c4)n3)n(C)c2=O)no1` [Compound 248, 2-(3-methyl-1-((5-methyl-1,2,4-oxadiazol-3-yl)methyl)-2,6-dioxo-2,3-dihydro-1H-purin-7(6H)-yl)-N-(2-(6-methyl-5-(trifluoromethyl)pyridin-3-yl)thiazol-4-yl)acetamide], the IC50 turned out to be 4 nM.

On to `CCC(=O)Cn1c(=O)c2c(ncn2CC(=O)Nc2csc(-c3cnc(C(F)(F)F)c(C)c3)n2)n(C)c1=O` [Compound 249, 2-(3-methyl-2,6-dioxo-1-(2-oxobutyl)-2,3-dihydro-1H-purin-7(6H)-yl)-N-(2-(5-methyl-6-(trifluoromethyl)pyridin-3-yl)thiazol-4-yl)acetamide], for which the IC50 amounted to 6 nM.

For `Cc1noc(Cn2c(=O)c3c(ncn3CC(=O)Nc3csc(-c4cnc(C(F)(F)F)c(C)c4)n3)n(C)c2=O)n1` [Compound 250, 2-(3-methyl-1-((3-methyl-1,2,4-oxadiazol-5-yl)methyl)-2,6-dioxo-2,3-dihydro-1H-purin-7(6H)-yl)-N-(2-(5-methyl-6-(trifluoromethyl)pyridin-3-yl)thiazol-4-yl)acetamide], the half-maximal inhibitory concentration (IC50) stood at 6 nM.

On to `Cc1cc(-c2nc(NC(=O)Cn3cnc4c3c(=O)n(CC(F)(F)F)c(=O)n4C)cs2)cnc1C(F)(F)F` [Compound 251, 2-(3-methyl-2,6-dioxo-1-(2,2,2-trifluoroethyl)-2,3-dihydro-1H-purin-7(6H)-yl)-N-(2-(5-methyl-6-(trifluoromethyl)pyridin-3-yl)thiazol-4-yl)acetamide], for which the IC50 was 219 nM.

As to `Cc1noc(Cn2c(=O)c3c(ncn3CC(=O)Nc3csc(-c4cnc(C)c(C(F)(F)F)c4)n3)n(C)c2=O)n1` [Compound 252, 2-(3-methyl-1-((3-methyl-1,2,4-oxadiazol-5-yl)methyl)-2,6-dioxo-2,3-dihydro-1H-purin-7(6H)-yl)-N-(2-(6-methyl-5-(trifluoromethyl)pyridin-3-yl)thiazol-4-yl)acetamide], the concentration for half-maximal inhibition (IC50) turned out to be 1 nM.

Consider `COCC(=O)Cn1c(=O)c2c(ncn2CC(=O)Nc2csc(-c3cnc(C)c(C(F)(F)F)c3)n2)n(C)c1=O` [Compound 254, 2-(1-(3-methoxy-2-oxopropyl)-3-methyl-2,6-dioxo-2,3-dihydro-1H-purin-7(6H)-yl)-N-(2-(6-methyl-5-(trifluoromethyl)pyridin-3-yl)thiazol-4-yl)acetamide], for which the IC50 was 14 nM.

On to `COCC(=O)Cn1c(=O)c2c(ncn2CC(=O)Nc2csc(-c3cnc(C(F)(F)F)c(C)c3)n2)n(C)c1=O` [Compound 255, 2-(1-(3-methoxy-2-oxopropyl)-3-methyl-2,6-dioxo-2,3-dihydro-1H-purin-7(6H)-yl)-N-(2-(5-methyl-6-(trifluoromethyl)pyridin-3-yl)thiazol-4-yl)acetamide], for which the IC50 was determined as 13 nM.

On to `CCC(=O)Cn1c(=O)c2c(ncn2[C@@H](C)C(=O)Nc2cccc(-c3cnc(N4CC5C(C4)C5(F)F)cn3)n2)n(C)c1=O` (stereo partly drawn) [Compound 256, (2S)—N-(6-(5-(6,6-difluoro-3-azabicyclo[3.1.0]hexan-3-yl)pyrazin-2-yl)pyridin-2-yl)-2-(3-methyl-2,6-dioxo-1-(2-oxobutyl)-2,3-dihydro-1H-purin-7(6H)-yl)propanamide], for which the IC50 stood at 5 nM.

In the case of `CC(=O)Cn1c(=O)c2c(ncn2[C@@H](C)C(=O)Nc2cccc(-c3cnc(N4CC5C(C4)C5(F)F)cn3)n2)n(C)c1=O` (stereo partly drawn) [Compound 257, (2S)—N-(6-(5-(6,6-difluoro-3-azabicyclo[3.1.0]hexan-3-yl)pyrazin-2-yl)pyridin-2-yl)-2-(3-methyl-2,6-dioxo-1-(2-oxopropyl)-2,3-dihydro-1H-purin-7(6H)-yl)propanamide], the IC50 is 11 nM.
